In US11339185B2, “Cyclic dinucleotides as anticancer agents” (Bristol-Myers Squibb Company, priority 2018, dated 2022):
Read-outs that look alike come from different tables or passages of the source.

Columns and labels:
[1] = tested on: THP1-Dual cells, IRF pathway (IRF3); experiment: STING THP1 Reporter Assay, IRF pathway (secreted Lucia luciferase, QUANTI-Luc); type: cell-based; settings: 10% human plasma, luciferase readout, 100% activation = 100 μM cGAMP, read-out: THP1 Reporter Assays EC50 (μM) IRF3
Excerpt: (§1) THP1-Dual™ cells were derived from the human THP-1 monocyte cell line by stable integration of two inducible reporter constructs. To this end, THP1-Dual™ cells allow the simultaneous study of the NF-κB pathway, by monitoring the activity of SEAP, and the IRF pathway by assessing the activity of a secreted luciferase (Lucia). Both reporter proteins are readily measurable in the cell culture supernatant when using QUANTI-Blue™, a SEAP detection reagent, and QUANTI-Luc™, a luciferase detection reagent.
(§2) THP1-Dual™ cells induce the activation of NF-κB in response to STING agonists. They also trigger the IRF pathway upon stimulation with STING agonists, such as cGAMP. Here, the THP-1-Dual cells were used to assess STING binders for function on the cellular level.
(§3) Serial dilutions of compounds in DMSO were added to low volume 384 well plates at 100 nl/well using an ECHO acoustic dispenser (Labcyte, model 550) to achieve final starting concentration of 100 μM in cell suspension. THP-1 Dual™ STING reporter cells (Invivogen, Dual cells cat #THPD-nfis) were added to the plates with compounds at 15,000 cells in 10 μL per well in RPMI media (Gibco, cat #11875) containing 10% human plasma in a low volume 384-well black wall clear bottom tissue culture plate (Corning, cat #3542) for SEAP assay and low volume solid white plate (Corning, cat #3826) for luciferase assay. One column of the plate was reserved for treatment with cGAMP at 100 μM for 100% activation calculation and one column for no treatment (DMSO only) for baseline activation. Plates were then incubated in 37 OC incubator at 5% CO2 for 20 hours.
(§4) In the SEAP assay, 5 μl of 2× QuantiBlue (Invivogen, cat #Rep-qb2) is added to 384 well black plates seeded with THP1 cells and incubated at 37° C. for 2 hours. Plates were read on the Envision (Perkin Elmer) at 620 nm wavelength (OD620). In the luciferase assay, 5 μl of Quantiluc (Invivogen, Rep-qlc2) is added to white 384 well plates seeded with THP1 cells and read at 5 minutes on the Envision (Perkin Elmer) using a luminescence protocol (RLU). For both cell lines, 100% activation was determined by value (RLU) of THP-1 Dual STING cells stimulated with 100 μM cGAMP (Invivogen, cat #TLRL-NACGA23-5).

[2] = tested on: THP1-Dual cells, NF-κB pathway; experiment: STING THP1 Reporter Assay, NF-κB pathway (SEAP, QUANTI-Blue); type: cell-based; settings: 10% human plasma, SEAP readout (OD620), 100% activation = 100 μM cGAMP, read-out: THP1 Reporter Assays EC50 (μM) NFkB
Excerpt: as §1, §2, §3, §4

[3] = target: T1, STING WT: His-TVMV-S-hSTING(155-341)-H232R (Homo sapiens, UniProt Q86WV6, H232R); experiment: STING HTRF binding assay (time resolved FRET competition), STING WT; settings: 20 nM His-tagged STING WT cytoplasmic domain, 200 nM fluorescein-labeled cGAMP analog probe, one hour; read-out: HTRF Binding Assays IC50 (μM) WT
T1 construct: STING WT: His-TVMV-S-hSTING(155-341)-H232R
T1 sequence (Q86WV6 with tags, fused parts or gaps H232R): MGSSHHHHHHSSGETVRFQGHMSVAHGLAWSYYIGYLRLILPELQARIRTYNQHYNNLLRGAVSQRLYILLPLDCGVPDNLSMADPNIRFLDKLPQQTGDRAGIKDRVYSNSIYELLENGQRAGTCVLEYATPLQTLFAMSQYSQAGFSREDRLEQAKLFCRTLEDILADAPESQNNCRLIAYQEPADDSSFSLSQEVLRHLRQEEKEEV
Protocol: (§5) A time resolved FRET-based competition binding assay was used to assess test article binding to STING WT and STING AQ. His-tagged STING cytoplasmic domain (WT or AQ) at a concentration of 20 nM was incubated with 2.5 nM Tb-labeled anti-His antibody, test compound, and fluorescein-labeled cGAMP analog probe (BioLog cat. no. C195) at a concentration of 200 nM (STING WT) or 40 nM (STING AQ) in PBS containing 0.005% Tween-20 and 0.1% BSA for one hour. Fluorescence at 495 nm and 520 nm was measured using an EnVision microplate reader to quantify FRET between Tb-labeled anti-His antibody and fluorescein-labeled probe. Background was defined as the signal obtained in the absence of STING protein, and background subtracted FRET ratios were normalized to the maximum signal obtained in the absence of test compound. These values were converted to a percent inhibition. Percent inhibition was determined for test compounds at 11 concentrations. The IC50, defined as the concentration of competing test compound needed to reduce specific binding of the probe by 50%, was calculated using the 4 parameter logistic equation to fit the data

[4] = target: T2, STING AQ: His-TVMV-S-hSTING(155-341)-G230A-R293Q (Homo sapiens, UniProt Q86WV6, G230A/H232R/R293Q); experiment: STING HTRF binding assay (time resolved FRET competition), STING AQ; settings: 20 nM His-tagged STING AQ cytoplasmic domain, 40 nM fluorescein-labeled cGAMP analog probe, one hour; read-out: HTRF Binding Assays IC50 (μM) AQ
T2 construct: STING AQ: His-TVMV-S-hSTING(155-341)-G230A-R293Q
T2 sequence (Q86WV6 with tags, fused parts or gaps G230A/H232R/R293Q): as the sequence (Q86WV6 with tags, fused parts or gaps H232R) above, with G99A, R162Q counted along it
Protocol: as §5

SMILES	EC50 ([1]; 20 hours)	EC50 ([2]; 20 hours)	IC50 [3]	IC50 [4]	EC50 ([2]; Homo sapiens, THP1-Dual, 20 h)	EC50 ([1]; Homo sapiens, THP1-Dual, 20 h)
Nc1ncnc2c1ncn2[C@@H]1O[C@@H]2COP(=O)(S)OC[C@@H]3[C@@H](COP(=O)(S)O[C@H]2[C@H]1F)C[C@H]3n1cnc2c(=O)n3cnnc3[nH]c21 (single isomer, unassigned) [Example 21-2]	> 100 µM	> 100 µM	6.97 µM	0.2 µM	–	–
Nc1ncnc2c1ncn2[C@@H]1O[C@@H]2COP(=O)(S)OC[C@@H]3[C@@H](COP(=O)(S)O[C@H]2[C@H]1F)C[C@H]3n1cnc2c(=O)[nH]cnc21 (single isomer, unassigned) [Example 22-1]	> 100 µM	–	5.68 µM	0.1 µM	> 100 µM	–
Nc1ncnc2c1ncn2[C@@H]1O[C@@H]2COP(=O)(S)OC[C@@H]3[C@@H](COP(=O)(S)O[C@H]2[C@H]1F)C[C@H]3n1cnc2c(=O)[nH]cnc21 (single isomer, unassigned) [Example 22-3]	> 100 µM	> 100 µM	2.71 µM	0.04 µM	–	–
Nc1ncnc2c1ncn2[C@@H]1O[C@@H]2COP(=O)(S)OC[C@@H]3[C@@H](COP(=O)(S)O[C@H]2[C@H]1F)C[C@H]3n1cnc2c(=O)[nH]cnc21 (single isomer, unassigned) [Example 22-4]	13 µM	91.7 µM	0.12 µM	0.01 µM	–	–
Nc1ncnc2c1ncn2[C@@H]1O[C@@H]2COP(=O)(S)OC[C@@H]3[C@@H](COP(=O)(S)O[C@H]2[C@H]1F)C[C@H]3n1cnc2c(=O)n3nnnc3[nH]c21 (single isomer, unassigned) [Example 23]	–	–	4.96 µM	0.07 µM	92.2 µM	> 100 µM
Nc1ncnc2c1ncn2[C@@H]1C[C@@H]2COP(=O)(S)O[C@@H]3[C@H](F)[C@@H](COP(=O)(O)OC[C@H]21)O[C@H]3n1cnc2c(=O)n3ccnc3[nH]c21 (stereo partly drawn) [Example 7, 3-[(1S,6S,8R,9R,15R,17R,18R)-8-(6-amino-9H-purin-9-yl)-18-fluoro-3,12-dihydroxy-12-oxo-3-sulfanylidene-2,4,11,13,16-pentaoxa-3λ^5,12λ^5-diphosphatricyclo[13.2.1.0^6,9]octadecan-17-yl]-3H,5H,9H-imidazo[1,2-a]purin-9-one]	–	–	0.12 µM	0.002 µM	11.5 µM	3.01 µM
NC(=O)c1cc([C@@H]2C[C@@H]3COP(=O)(O)O[C@H]4[C@@H](F)[C@H](n5cnc6c(N)ncnc65)O[C@@H]4COP(=O)(O)OC[C@H]32)ccn1 [Example 12, 4-[(1R,6S,8R,9S,15R,17R,18R)-17-(6-amino-9H-purin-9-yl)-18-fluoro-3,12-dihydroxy-3,12-dioxo-2,4,11,13,16-pentaoxa-3λ^5,12λ^5-diphosphatricyclo[13.3.0.0^6,9]octadecan-8-yl]pyridine-2-carboxamide]	–	–	31.2 µM	0.35 µM	> 100 µM	> 100 µM
Nc1ncnc2c1ncn2[C@@H]1C[C@@H]2COP(=O)(O)O[C@H]3[C@@H](F)[C@H](n4cnc5c4ncn4ccnc54)O[C@@H]3COP(=O)(O)OC[C@H]21 [Example 16, (1R,6S,8R,9R,15R,17R,18R)-8-(6-amino-9H-purin-9-yl)-18-fluoro-3,12-dihydroxy-17-{3H-imidazo[2,1-f]purin-3-yl}-2,4,11,13,16-pentaoxa-3λ^5,12λ^5-diphosphatricyclo[13.3.0.0^6,9]octa-decane-3,12-dione]	–	–	4.66 µM	0.02 µM	72.8 µM	23.9 µM
NC(=O)c1cc([C@@H]2C[C@@H]3COP(=O)(S)O[C@H]4[C@@H](F)[C@H](n5cnc6c5ncn5ccnc65)O[C@@H]4COP(=O)(S)OC[C@H]32)ccn1 (stereo partly drawn) [Example 19, 4-[(1R,6S,8R,9S,15R,17R,18R)-18-fluoro-17-{3H-imidazo[2,1-f]purin-3-yl}-3,12-dioxo-3,12-disulfanyl-2,4,11,13,16-pentaoxa-3λ^5,12λ^5-diphosphatricyclo[13.3.0.0^6,9]octa-decan-8-yl]pyridine-2-carboxamide]	–	–	0.01 µM	0.01 µM	2.38 µM	0.97 µM
